Columns and labels:
[1] = test system: cellular histone deacetylase enzymatic activity in Jurkat E6-1 cells; test: Cell (Lys-TFA): cellular HDAC activity in Jurkat E6-1 cells with Boc-Lys(Tfa)-AMC; assay type: cell-based; details: Boc-Lys(Tfa)-AMC substrate
Method: The potency of the compounds is quantified by measuring the cellular histone deacetylase enzymatic activity using the fluorogenic substrate, Boc-Lys(Tfa)-AMC. After penetration in Jurkat E6-1 cells, the substrate is deacetylated to Boc-Lys-AMC. After cell lysis and cleavage by trypsin, the fluorophore AMC is released from the deacetylated substrate only. The fluorescence of the sample is directly related to the histone deacetylase activity in the sample.
Jurkat E6.1 cells are cultured according to standard cell culture protocols in Jurkat E6.1 Growth Media (RPMI without phenol red, 10% FBS, 10 mM HEPES, and 1 mM Sodium Pyruvate). Jurkat E6.1 cells are counted using a Coulter Counter and resuspended in Jurkat E6.1 growth media at a concentration of 75,000 cells/35 μL. 35 μL or 75,000 cells is seeded into Greiner microtitre assay plates. The plates are then incubated at 37° C. and 5% CO2 while other assay components are being prepared.
Stocks of 70 μL aliquots of the 10 mM compound in DMSO are prepared and stored at −20° C. […]
5 μL of each solution of 1:20 diluted compound from above is transferred to the Greiner microtitre assay plates with 75,000 cells/well using the Bravo. […] Finally the top read fluorescence (Excitation: 355 nm, Emission: 460 nm) is measured using PerkinElmer EnVision.

[2] = test system: cellular HDAC activity (Lys-Ac); test: Cell (Lys-Ac): cellular HDAC activity; assay type: cell-based
[3] = molecular target: Histone Deacetylase 4 (HDAC4) catalytic domain (Homo sapiens (Human), UniProt P56524); test: Biochemical IC50: HDAC enzymatic activity with fluorogenic substrate Boc-Lys(Tfa)-AMC
Histone Deacetylase 4 (HDAC4) catalytic domain, sequence (P56524 648-1032): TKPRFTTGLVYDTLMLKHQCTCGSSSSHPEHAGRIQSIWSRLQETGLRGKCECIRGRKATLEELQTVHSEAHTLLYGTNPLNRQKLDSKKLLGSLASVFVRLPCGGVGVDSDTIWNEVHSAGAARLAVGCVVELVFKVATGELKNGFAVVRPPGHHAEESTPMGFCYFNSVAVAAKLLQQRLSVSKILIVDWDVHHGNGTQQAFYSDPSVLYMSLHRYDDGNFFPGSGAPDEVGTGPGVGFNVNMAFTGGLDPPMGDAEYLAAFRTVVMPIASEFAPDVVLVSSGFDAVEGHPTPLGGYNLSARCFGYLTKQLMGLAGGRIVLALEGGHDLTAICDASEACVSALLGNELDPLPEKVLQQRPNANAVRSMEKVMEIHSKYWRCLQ
Method: The potency of compounds is quantified by measuring the Histone Deacetylase 4 (HDAC4) catalytic domain enzymatic activity using the fluorogenic substrate, Boc-Lys(Tfa)-AMC. The substrate is deacetylated to Boc-Lys-AMC by HDAC4. Cleavage by trypsin results in the release of the fluorophore AMC from the deacetylated substrate. The fluorescence of the sample is directly related to the histone deacetylase activity in the sample.
Stocks of 60 μL aliquots of the 10 mM compound in DMSO are prepared and stored at −20° C. From one stock aliquot of each compound to be tested and the reference compound, a 16-point serial dilution is prepared according to Table 1 using a 125 μL 16-channel Matrix multi-channel pipette (Matrix Technologies Ltd).
2 μL (200×) of each diluted solution and each control (full activity: 100% DMSO alone or full inhibition 1 mM) is stamped into V-bottomed polypropylene 384-well compound plates using either the Bravo (384-well head from Agilent) or 12.5 μL 16-channel Matrix multi-channel pipette (Matrix Technologies Ltd). […]
5 μL of each solution of 1:20 diluted compound from above is transferred to a clear bottomed, black, 384-well assay plate using the Bravo or the Janus (384-well MDT head from Perkin Elmer). […] Finally, the fluorescence is measured (Excitation: 355 nm, Emission: 460 nm) using PerkinElmer EnVision in top read mode.

Row | IC50 [1] [nM] | IC50 [2] [nM] | IC50 [3] [nM] | Compound
1 | 770 | > 50000 |  | 5-(3-Fluoro-2-methylphenyl)-N-hydroxy-1-(2,2,2-trifluoroethyl)-4,5,6,7-tetrahydro-1H-indazole-5-carboxamide and 5-(3-fluoro-2-methylphenyl)-N-hydroxy-2-(2,2,2-trifluoroethyl)-4,5,6,7-tetrahydro-2H-indazole-5-carboxamide [Example 35]
2 |  | > 50000 |  | Cc1c(F)cccc1C1(C(=O)NO)CCc2nc(C3CC3)ncc21 (stereo in doubt) [Example 57, (R)-2-Cyclopropyl-5-(3-fluoro-2-methylphenyl)-N-hydroxy-6,7-dihydro-5H-cyclopenta[d]pyrimidine-5-carboxamide]
3 | 370 | > 50000 | 600 | 5-(3-Fluoro-2-methylphenyl)-1-(4-fluorobenzyl)-N-hydroxy-4,5,6,7-tetrahydro-1H-indazole-5-carboxamide and 5-(3-fluoro-2-methylphenyl)-2-(4-fluorobenzyl)-N-hydroxy-4,5,6,7-tetrahydro-2H-indazole-5-carboxamide [Example 36]

From patent US10457675B2, “Histone deacetylase inhibitors and compositions and methods of use thereof” (CHDI Foundation, Inc., priority 2014, dated 2019)
